Results from patent publication US9511058B2, “Methods for using carboxamide, sulfonamide and amine compounds” (Rigel Pharmaceuticals, Inc., priority 2010, dated 2016).

Each compound was assayed against AMPK (assay: AMPK activation, enzyme-linked immunosorbent assay). Details: compounds of Table 1 (Table 6).
Format: biochemical
Method: Compounds of Table 1 were assayed for their ability to activate AMPK using an enzyme-linked immunosorbent assay.
Compounds of Table 2 were assayed for their ability to activate AMPK using an enzyme-linked immunosorbent assay.
Compounds of Table 3 were assayed for their ability to activate AMPK using an enzyme-linked immunosorbent assay.
Compounds of Table 4 were assayed for their ability to activate AMPK using an enzyme-linked immunosorbent assay.
Compounds of Table 5 were assayed for their ability to activate AMPK using an enzyme-linked immunosorbent assay.

SMILES | EC50 [nM]
CN(C(=O)c1cc2cc(OC3CCN(c4ccc(C(F)(F)F)cc4)CC3)ccc2o1)C1CCN(Cc2cccnc2)CC1 [1-109, N-methyl-N-(1-(pyridin-3-ylmethyl)piperidin-4-yl)-5-(1-(4-(trifluoromethyl)phenyl)piperidin-4-yloxy)benzofuran-2-carboxamide] | < 100
FC(F)(F)c1ccc(N2CCC(Oc3ccc4c(c3)CCC4NC3CCNCC3)CC2)cc1 (stereo not drawn) [1-157, N-(5-(1-(4-(trifluoromethyl)phenyl)piperidin-4-yloxy)-2,3-dihydro-1H-inden-1-yl)piperidin-4-amine] | 1000 to 5000
O=C(NC1CCN(Cc2ccccn2)CC1)c1cc2ccc(OC3CCN(c4ccc(OC(F)(F)F)cc4)CC3)cc2o1 [1-92, N-(1-(pyridin-2-ylmethyl)piperidin-4-yl)-6-(1-(4-(trifluoromethoxy)phenyl)piperidin-4-yloxy)benzofuran-2-carboxamide] | 500 to 1000
Cc1c(C(=O)NC2CCN(Cc3ccc(C#N)cc3)CC2)oc2cc(OC3CCN(c4ccc(C(F)(F)F)cc4)CC3)ccc12 [1-64, N-(1-(4-cyanobenzyl)piperidin-4-yl)-3-methyl-6-(1-(4-(trifluoromethyl)phenyl)piperidin-4-yloxy)benzofuran-2-carboxamide] | < 100
O=C(NC1CCN(Cc2ccc(N3CCOCC3)cc2)CC1)c1ccc(OC2CCN(c3ccc(C(F)(F)F)cc3)CC2)cn1 [1-40, N-(1-(4-morpholinobenzyl)piperidin-4-yl)-5-(1-(4-(trifluoromethyl)phenyl)piperidin-4-yloxy)picolinamide] | < 100
O=C(N[C@@H]1CCN(C(=O)c2ccncc2)C1)c1cc2cc(OC3CCN(c4ccc(C(F)(F)F)cc4)CC3)ccc2o1 [1-125, (R)-N-(1-isonicotinoylpyrrolidin-3-yl)-5-(1-(4-(trifluoromethyl)phenyl)piperidin-4-yloxy)benzofuran-2-carboxamide] | 1000 to 5000
O=C(NC1CCN(Cc2ccccc2)CC1)c1cc2cc(OC3CCN(Cc4ccc(F)c(F)c4)CC3)ccc2o1 [1-74, N-(1-benzylpiperidin-4-yl)-5-(1-(3,4-difluorobenzyl)piperidin-4-yloxy)benzofuran-2-carboxamide] | 100 to 500
N#Cc1ccc(CN2CC[C@H](NC(=O)c3ccc(OC4CCN(c5ccc(C(F)(F)F)cc5)CC4)cn3)C2)cc1 [1-31, (S)-N-(1-(4-cyanobenzyl)pyrrolidin-3-yl)-5-(1-(4-(trifluoromethyl)phenyl)piperidin-4-yloxy)picolinamide] | < 100
Cc1c(C(=O)NC2CCNCC2)oc2cc(OC3CCN(c4ccc(C(F)(F)F)cc4)CC3)ccc12 [1-62, 3-methyl-N-(piperidin-4-yl)-6-(1-(4-(trifluoromethyl)phenyl)piperidin-4-yloxy)benzofuran-2-carboxamide] | 5000 to 10000
O=C(NC1CCN(Cc2ccncc2)CC1)c1cc(OC2CCN(c3ccc(C(F)(F)F)cc3)CC2)ccn1 [1-13, N-(1-(pyridin-4-ylmethyl)piperidin-4-yl)-4-(1-(4-(trifluoromethyl)phenyl)piperidin-4-yloxy)picolinamide] | 100 to 500
N#Cc1ccc(CN2CCC(NC(=O)c3ccnc(OC4CCN(c5ccc(C(F)(F)F)cc5)CC4)c3)CC2)cc1 [1-21, N-(1-(4-cyanobenzyl)piperidin-4-yl)-2-(1-(4-(trifluoromethyl)phenyl)piperidin-4-yloxy)isonicotinamide] | 100 to 500
CC(C)(C)OC(=O)N1CCC(NC(=O)c2cc3ccc(OC4CCN(c5ccc(C(F)(F)F)cc5)CC4)cc3s2)CC1 [1-140, tert-butyl 4-(6-(1-(4-(trifluoromethyl)phenyl)piperidin-4-yloxy)benzo[b]thiophene-2-carboxamido)piperidine-1-carboxylate] | 500 to 1000
CC(C)(C)OC(=O)N1CCC(NC(=O)c2cc(OC3CCN(c4ccc(C(F)(F)F)cc4)CC3)ccn2)CC1 [1-12, tert-butyl 4-(4-(1-(4-(trifluoromethyl)phenyl)piperidin-4-yloxy)picolinamido)piperidine-1-carboxylate] | 500 to 1000
O=C(N[C@@H]1CCN(Cc2ccc(F)cc2)C1)c1ccc(OC2CCN(c3ccc(C(F)(F)F)cc3)CC2)cn1 [1-34, (R)-N-(1-(4-fluorobenzyl)pyrrolidin-3-yl)-5-(1-(4-(trifluoromethyl)phenyl)piperidin-4-yloxy)picolinamide] | 500 to 1000
O=C(NC1CCN(Cc2ccccc2)CC1)c1cc2cc(OC3CCN(c4ccc(C(F)(F)F)cc4)CC3)ccc2o1 [1-75, N-(1-benzylpiperidin-4-yl)-5-(1-(4-(trifluoromethyl)phenyl)piperidin-4-yloxy)benzofuran-2-carboxamide] | < 100

Same assay, conditions: compounds of Table 2 (Table 7)

SMILES | EC50 [nM]
NC(=O)c1ccc(CN2CCC(NC(=O)c3ccc4[nH]c5c(c4c3)CN(Cc3ccc(C(F)(F)F)cc3)CC5)CC2)cc1 [2-52, N-(1-(4-carbamoyl-benzyl)piperidin-4-yl)-2-(4-(trifluoromethyl)benzyl)-2,3,4,5-tetrahydro-1H-pyrido [4,3-b]indole-8-carboxamide] | 1000 to 5000
CC(C)(C)OC(=O)N1CCC(NC(=O)c2ccc3[nH]c4c(c3c2)CN(C(=O)OCc2ccccc2)CC4)CC1 [2-3, benzyl 8-(1-(tert-butoxycarbonyl)piperidin-4-ylcarbamoyl)-3,4-dihydro-1H-pyrido[4,3-b]indole-2(5H)-carboxylate] | 10000 to 50000
O=C(NC1CCN(C(=O)c2ccc(C(F)(F)F)cc2)CC1)c1ccc2[nH]c3c(c2c1)CN(c1ccc(F)cc1)CC3 [2-41, 2-(4-fluorophenyl)-N-(1-(4-(trifluoromethyl)benzoyl)piperidin-4-yl)-2,3,4,5-tetrahydro-1H-pyrido[4,3-b]indole-8-carboxamide] | 10000 to 50000
O=C(NC1CCN(Cc2ccc(C(F)(F)F)cc2)CC1)c1ccc2[nH]c3c(c2c1)CN(c1ccc(F)cc1)CC3 [2-37, 2-(4-fluorophenyl)-N-(1-(4-(trifluoromethyl)benzyl)piperidin-4-yl)-2,3,4,5-tetrahydro-1H-pyrido[4,3-b]indole-8-carboxamide] | 5000 to 10000
O=C(NC1CCN(S(=O)(=O)c2ccc(C(F)(F)F)cc2)CC1)c1ccc2[nH]c3c(c2c1)CN(Cc1ccc(C(F)(F)F)cc1)CC3 [2-23, 2-(4-(trifluoromethyl)benzyl)-N-(1-(4-(trifluoromethyl)phenylsulfonyl)piperidin-4-yl)-2,3,4,5-tetrahydro-1H-pyrido[4,3-b]indole-8-carboxamide] | 1000 to 5000
O=C(NC1CCN(Cc2ccncc2)CC1)c1ccc2[nH]c3c(c2c1)CN(Cc1ccccc1)CC3 [2-7, 2-benzyl-N-(1-(pyridin-4-ylmethyl)piperidin-4-yl)-2,3,4,5-tetrahydro-1H-pyrido[4,3-b]indole-8-carboxamide] | 5000 to 10000
N#Cc1ccc(CN2CCC(NC(=O)c3ccc4[nH]c5c(c4c3)CN(C(=O)OCc3ccccc3)CC5)CC2)cc1 [2-1, benzyl 8-(1-(4-cyanobenzyl)piperidin-4-ylcarbamoyl)-3,4-dihydro-1H-pyrido[4,3-b]indole-2(5H)-carboxylate] | 1000 to 5000
O=C(NC1CCN(S(=O)(=O)c2cccc(C(F)(F)F)c2)CC1)c1ccc2[nH]c3c(c2c1)CN(Cc1ccc(C(F)(F)F)cc1)CC3 [2-30, 2-(4-(trifluoromethyl)benzyl)-N-(1-(3-(trifluoromethyl)phenylsulfonyl)piperidin-4-yl)-2,3,4,5-tetrahydro-1H-pyrido[4,3-b]indole-8-carboxamide] | 1000 to 5000

Same assay, conditions: compounds of Table 3 (Table 8)

SMILES | EC50 [nM]
O=C(NC1CCN(Cc2ccncc2)CC1)c1nc2ccc(OC3CCN(c4ccc(C(F)(F)F)cc4)CC3)cc2o1 [3-3, N-(1-(pyridin-4-ylmethyl)piperidin-4-yl)-6-(1-(4-(trifluoromethyl)phenyl)piperidin-4-yloxy)benzo[d]oxazole-2-carboxamide] | < 100
N#Cc1ccc(CN2CCC(NC(=O)c3ccc(C(=O)N4CCN(Cc5ccc(Cl)cc5)CC4)cc3)CC2)cc1 [3-28, 4-(4-(4-chlorobenzyl)piperazine-1-carbonyl)-N-(1-(4-cyanobenzyl)piperidin-4-yl)benzamide] | < 100
N#Cc1ccc(C(=O)N2CCC(NC(=O)c3nc4ccc(OC5CCN(c6ccc(C(F)(F)F)cc6)CC5)cc4o3)CC2)cc1 [3-6, N-(1-(4-cyanobenzoyl)piperidin-4-yl)-6-(1-(4-(trifluoromethyl)phenyl)piperidin-4-yloxy)benzo[d]oxazole-2-carboxamide] | < 100

Same assay, conditions: compounds of Table 5 (Table 10)

SMILES | EC50 [nM]
CC(C)(C)c1ccc(CN2CCC(Oc3ccc(C(=O)NC4CCN(Cc5ccccc5)CC4)cc3F)CC2)cc1 [5-20, N-(1-benzylpiperidin-4-yl)-3-fluoro-4-(1-(4-tert-butylbenzyl)piperidin-4-yloxy)benzamide] | < 1000
N#Cc1ccc(N2CCC(Oc3ccc(C(=O)NC4CCN(Cc5ccc(Cl)cc5)CC4)cc3F)CC2)cc1 [5-81, N-(1-(4-chlorobenzyl)piperidin-4-yl)-4-(1-(4-cyanophenyl)piperidin-4-yloxy)-3-fluorobenzamide] | < 1000
O=C(O)c1ccc(CN2CCC(NC(=O)c3ccc(OC4CCN(c5ccc(C(F)(F)F)cc5)CC4)c(F)c3)CC2)cc1 [5-35, 4-((4-(3-fluoro-4-(1-(4-(trifluoromethyl)phenyl)piperidin-4-yloxy)benzamido)piperidin-1-yl)methyl)benzoic acid] | 1000 to 10000
COc1cc(C(=O)NCCCN2CCOCC2)ccc1OC1CCN(Cc2ccc(Cl)cc2)CC1 [5-98] | 1000 to 10000
O=C(NC1CCN(Cc2ccccc2)CC1)c1ccc(OC2CCN(Cc3ccc(F)c(F)c3)CC2)c(F)c1 [5-69, N-(1-benzylpiperidin-4-yl)-4-(1-(3,4-difluorobenzyl)piperidin-4-yloxy)-3-fluorobenzamide] | < 1000
COc1cc(C(=O)NC2CCN(Cc3ccccc3)CC2)ccc1OC1CCN(CCCc2ccccc2)CC1 [5-7, N-(1-benzylpiperidin-4-yl)-3-methoxy-4-(1-(3-phenylpropyl)piperidin-4-yloxy)benzamide] | < 1000
N#Cc1cccc(CN2CCC(Oc3cccc(C(=O)NC4CCN(Cc5ccccc5)CC4)c3)CC2)c1 [5-89, N-(1-benzylpiperidin-4-yl)-3-(1-(3-cyanobenzyl)piperidin-4-yloxy)benzamide] | 1000 to 10000
